Results taken from publication PMC5833010 (ACS Central Science, 2018).

How the values were obtained:
STH7 = test: qRT-PCR of strigolactone-responsive gene STH7 in seedlings; type: in vivo, Arabidopsis; details: 10-day-old seedlings, 1 μM (+)-GR24 alone, 24 h
AtD14-GFP fusion protein = target: T1, AtD14-GFP fusion protein (Arabidopsis thaliana, UniProt Q9SQR3); test: AtD14-GFP degradation in 35S::AtD14-GFP/atd14-1 seedlings; type: in vivo; details: 1 μM (+)-GR24 alone, 24 h
T1 sequence (Q9SQR3 1-267): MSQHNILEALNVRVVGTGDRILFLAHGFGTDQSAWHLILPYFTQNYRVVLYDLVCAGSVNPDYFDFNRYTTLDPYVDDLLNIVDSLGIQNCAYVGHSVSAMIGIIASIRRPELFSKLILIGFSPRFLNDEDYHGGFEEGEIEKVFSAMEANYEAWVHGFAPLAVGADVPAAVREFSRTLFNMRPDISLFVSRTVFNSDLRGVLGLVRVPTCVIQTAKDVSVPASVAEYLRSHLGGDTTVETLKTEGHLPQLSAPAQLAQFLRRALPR

BRC1 = test: qRT-PCR of strigolactone-responsive gene BRC1 in seedlings; type: in vivo, Arabidopsis; details: 10-day-old seedlings, 1 μM (+)-GR24 alone, 24 h

GFP signal in hypocotyl (AtD14-GFP) (AtD14-GFP fusion protein): striking reduction
Substance: (+)-GR24
expression of STH7 (STH7): increased
expression of BRC1 (BRC1): increased
